Test results reported in the NIST ThermoML archive (doi:10.1021/je7007632).

Assays:
[1] = refractive index (Na D-line) (dimensionless); xn = mol fraction of the nth substance listed; conditions: 101 kPa, Liquid, Standard Abbe refractometry
[2] = refractive index (Na D-line) (dimensionless); conditions: 101.33 kPa, Liquid, Standard Abbe refractometry

NC=O [formamide] + CCC(C)O
refractive index, [1]
Conditions | x1 = 0.1043 | x1 = 0.2043 | x1 = 0.3056 | x1 = 0.4083 | x1 = 0.5093 | x1 = 0.6063 | x1 = 0.7068 | x1 = 0.8042 | x1 = 0.9024 | x1 = 1
293.15 K | 1.3993 | 1.4017 | 1.4045 | 1.4079 | 1.4119 | 1.4165 | 1.4222 | 1.4289 | 1.4372 | 1.4475
298.15 K | 1.3973 | 1.3996 | 1.4025 | 1.4061 | 1.4102 | 1.4149 | 1.4207 | 1.4276 | 1.4361 | 1.4467
303.15 K | 1.3953 | 1.3977 | 1.4007 | 1.4043 | 1.4085 | 1.4133 | 1.4193 | 1.4263 | 1.435 | 1.4459
308.15 K | 1.3933 | 1.3958 | 1.3989 | 1.4026 | 1.4068 | 1.4118 | 1.4179 | 1.4251 | 1.434 | 1.4451
313.15 K | 1.3913 | 1.3939 | 1.397 | 1.4008 | 1.4051 | 1.4102 | 1.4164 | 1.4237 | 1.4328 | 1.4442
318.15 K | 1.3893 | 1.3919 | 1.3951 | 1.399 | 1.4034 | 1.4086 | 1.4149 | 1.4224 | 1.4317 | 1.4433

NC=O [formamide] + CC(O)CCO
[1], x1 = 1
Conditions | refractive index
293.15 K | 1.4475
298.15 K | 1.4467
303.15 K | 1.4459
308.15 K | 1.4451
313.15 K | 1.4442
318.15 K | 1.4433

CCC(C)O (centres undefined) [butan-2-ol]
[2]
Conditions | refractive index
293.15 K | 1.3972
298.15 K | 1.3951
303.15 K | 1.3931
308.15 K | 1.3911
313.15 K | 1.3891
318.15 K | 1.3871

CC(O)CCO (centres undefined) [1,3-butanediol] + NC=O
refractive index, [1]
Conditions | x2 = 0 | x2 = 0.1061 | x2 = 0.2004 | x2 = 0.3068 | x2 = 0.4026 | x2 = 0.5033 | x2 = 0.6046 | x2 = 0.7013 | x2 = 0.8073 | x2 = 0.9058
293.15 K | 1.4412 | 1.441 | 1.4409 | 1.4411 | 1.4414 | 1.4419 | 1.4425 | 1.4434 | 1.4445 | 1.4459
298.15 K | 1.4391 | 1.4389 | 1.4389 | 1.4391 | 1.4395 | 1.4401 | 1.4409 | 1.4419 | 1.4432 | 1.4448
303.15 K | 1.437 | 1.4368 | 1.4369 | 1.4372 | 1.4377 | 1.4384 | 1.4393 | 1.4404 | 1.4419 | 1.4437
308.15 K | 1.4349 | 1.4348 | 1.4349 | 1.4352 | 1.4358 | 1.4366 | 1.4377 | 1.4389 | 1.4406 | 1.4427
313.15 K | 1.4329 | 1.4328 | 1.4329 | 1.4333 | 1.434 | 1.4349 | 1.436 | 1.4374 | 1.4393 | 1.4415
318.15 K | 1.4308 | 1.4307 | 1.4309 | 1.4314 | 1.4321 | 1.4331 | 1.4344 | 1.4359 | 1.4379 | 1.4404

CCCCO [butan-1-ol]
[2]
Conditions | refractive index
293.15 K | 1.3994
298.15 K | 1.3974
303.15 K | 1.3953
308.15 K | 1.3933
313.15 K | 1.3913
318.15 K | 1.3893

NC=O [formamide] + CCCCO
refractive index, [1]
Conditions | x1 = 0.1093 | x1 = 0.2057 | x1 = 0.3138 | x1 = 0.4104 | x1 = 0.5115 | x1 = 0.6124 | x1 = 0.7081 | x1 = 0.8123 | x1 = 0.9086 | x1 = 1
293.15 K | 1.4023 | 1.4052 | 1.4086 | 1.4119 | 1.4158 | 1.4203 | 1.4252 | 1.4316 | 1.4389 | 1.4475
298.15 K | 1.4003 | 1.4032 | 1.4067 | 1.4101 | 1.4141 | 1.4187 | 1.4238 | 1.4303 | 1.4378 | 1.4467
303.15 K | 1.3983 | 1.4012 | 1.4048 | 1.4083 | 1.4124 | 1.4171 | 1.4223 | 1.429 | 1.4367 | 1.4459
308.15 K | 1.3963 | 1.3992 | 1.4029 | 1.4065 | 1.4107 | 1.4155 | 1.4208 | 1.4277 | 1.4357 | 1.4451
313.15 K | 1.3943 | 1.3973 | 1.4011 | 1.4047 | 1.409 | 1.4139 | 1.4194 | 1.4264 | 1.4345 | 1.4442
318.15 K | 1.3923 | 1.3954 | 1.3992 | 1.4029 | 1.4073 | 1.4123 | 1.4179 | 1.4251 | 1.4334 | 1.4433

CC(O)CCO (centres undefined) [1,3-butanediol]
[2]
Conditions | refractive index
293.15 K | 1.4412
298.15 K | 1.4391
303.15 K | 1.437
308.15 K | 1.4349
313.15 K | 1.4329
318.15 K | 1.4308

CCC(C)O (centres undefined) [butan-2-ol] + NC=O
[1], x2 = 0
Conditions | refractive index
293.15 K | 1.3972
298.15 K | 1.3951
303.15 K | 1.3931
308.15 K | 1.3911
313.15 K | 1.3891
318.15 K | 1.3871

NC=O [formamide]
[2]
Conditions | refractive index
293.15 K | 1.4475
298.15 K | 1.4467
303.15 K | 1.4459
308.15 K | 1.4451
313.15 K | 1.4442
318.15 K | 1.4433

OCCCCO [1,4-butanediol] + NC=O
refractive index, [1]
Conditions | x2 = 0 | x2 = 0.1052 | x2 = 0.1988 | x2 = 0.3041 | x2 = 0.4002 | x2 = 0.5009 | x2 = 0.6022 | x2 = 0.6992 | x2 = 0.8051 | x2 = 0.905
293.15 K | 1.4451 | 1.4445 | 1.444 | 1.4437 | 1.4436 | 1.4437 | 1.444 | 1.4445 | 1.4452 | 1.4463
298.15 K | 1.4431 | 1.4425 | 1.442 | 1.4418 | 1.4418 | 1.442 | 1.4424 | 1.4431 | 1.4439 | 1.4452
303.15 K | 1.4411 | 1.4405 | 1.44 | 1.4399 | 1.44 | 1.4403 | 1.4408 | 1.4416 | 1.4426 | 1.4441
308.15 K | 1.4391 | 1.4385 | 1.438 | 1.438 | 1.4382 | 1.4386 | 1.4392 | 1.4401 | 1.4413 | 1.443
313.15 K | 1.4372 | 1.4365 | 1.4361 | 1.4361 | 1.4364 | 1.4369 | 1.4376 | 1.4386 | 1.44 | 1.4419
318.15 K | 1.4352 | 1.4345 | 1.4341 | 1.4342 | 1.4345 | 1.4351 | 1.4359 | 1.437 | 1.4386 | 1.4407

CCCCO [butan-1-ol] + NC=O
[1], x2 = 0
Conditions | refractive index
293.15 K | 1.3994
298.15 K | 1.3974
303.15 K | 1.3953
308.15 K | 1.3933
313.15 K | 1.3913
318.15 K | 1.3893

NC=O [formamide] + OCCCCO
[1], x1 = 1
Conditions | refractive index
293.15 K | 1.4475
298.15 K | 1.4467
303.15 K | 1.4459
308.15 K | 1.4451
313.15 K | 1.4442
318.15 K | 1.4433

OCCCCO [1,4-butanediol]
[2]
Conditions | refractive index
293.15 K | 1.4451
298.15 K | 1.4431
303.15 K | 1.4411
308.15 K | 1.4391
313.15 K | 1.4372
318.15 K | 1.4352
